Measured values taken from patent US20250206751A1, “HETEROCYCLIC COMPOUND FOR INDUCING DEGRADATION OF G12D MUTANT KRAS PROTEIN” (Astellas Pharma Inc., priority 2022, published 2025).

Legend:
KRAS G12D protein = molecular target: T1, KRAS G12D protein (Homo sapiens, UniProt P01116, G12D); test: KRAS degradation activity by Cell ELISA in AsPC-1 (Test Example 1); assay type: cell-based; settings: AsPC-1 cells, cultured overnight with compound, corrected with β-actin, read-out: DC50 (50% degradation concentration of the amounts of KRAS)
T1 construct: host or cells: AsPC-1
Description: Test Example 1: Evaluation of KRAS Degradation Activity on Human G12D Mutant KRAS-Positive Pancreatic Cancer Line AsPC-1 (CRL-1682; ATCC)
The KRAS degradation activity of test compounds was evaluated by measuring the expression levels of KRAS G12D protein by Cell ELISA.
AsPC-1 cells were seeded at 20 μL per well on 384-well plates (from Greiner bio-one) to give 2.0×10^4 cells per well. As for the cell culture conditions, RPMI 1640 (from Sigma-Aldrich) medium containing 10% fetal bovine serum (from Cytiva) was used in the presence of 5% CO2 at 37° C.
The next day, the test compounds (10 points having final concentrations in the range of 10 μM to 0.3 nM) and DMSO (from FUJIFILM Wako Pure Chemical Corporation), which was the solvent for the test compounds, as a negative control were diluted 500-fold with a fresh medium and were added at 20 μL per well. The cells were cultured overnight.
The next day, the culture supernatant was removed, and 4% paraformaldehyde phosphate buffer (from FUJIFILM Wako Pure Chemical Corporation) was added at 20 μL per well. The plates were allowed to stand for 30 minutes at room temperature to thus immobilize the cells. Then, the supernatant was removed, and 0.1% Triton X-100 (from Amersham Biosciences)-containing Phosphate buffered saline (PBS; from FUJIFILM Wako Pure Chemical Corporation) was added at 20 μL per well. After allowing to stand for 10 minutes at room temperature, the supernatant was removed. PBS was added at 25 μL per well, and the supernatant was removed to thus wash each well. The washing was performed twice in total. Next, the supernatant was removed, and 0.5% sodium dodecyl sulfate (SDS; from Invitrogen)-containing PBS was added at 20 μL per well. After allowing to stand at room temperature for 10 minutes, the supernatant was removed by a centrifugal operation (using a centrifugal dehydrator machine, the supernatant was removed by the same method hereinafter). PBS was added at 25 μL per well, and the supernatant was removed to thus wash each well. The washing was performed twice in total. The supernatant was removed, and blocking solution (Intercept Blocking Buffer; from Li-COR Biosciences) was added at 20 μL per well. After allowing to stand for 30 minutes at room temperature, the supernatant was removed, and a solution obtained by diluting anti-β-actin antibody (Anti-beta Actin antibody [mAbcam 8226]-Loading Control; from abcam) 1,000-fold with blocking solution and a solution obtained by diluting anti-Ras (G12D Mutant Specific) antibody (Ras (G12D Mutant Specific) (D8H7) Rabbit mAb #14429; from Cell Signaling Technology) and anti-β-actin antibody (from abcam) 1,000-fold with blocking solution were respectively added to positive control wells and the other wells at 20 μL per well as a primary antibody. The plate was allowed to stand overnight at 4° C.
The next day, the supernatant was removed. PBS was added at 25 μL per well, and the supernatant was removed to thus wash each well. The washing was performed twice in total. The supernatant was removed, and a solution obtained by diluting Donkey anti-Mouse IgG H&L (IRDye 680RD) (from Li-COR Biosciences) and Goat anti-Rabbit IgG H&L (IRDye 800CW) (from Li-COR Biosciences) 1,000-fold with blocking solution was added at 20 μL per well as a secondary antibody. After allowing to stand for 1 hour at room temperature, the supernatant was removed. PBS was added at 25 μL per well, and the supernatant was removed to thus wash each well. The washing was performed twice in total. After removing the supernatant, the plate was dried with air at room temperature for 2 hours or more, and the 700 nm and 800 nm fluorescent signals were measured with Aerius (from Li-COR Biosciences). […]

[1] = system: phosphorylation of threonine 202 (Thr202) and tyrosine 204 (Tyr204) of ERK; test: ERK phosphorylation inhibitory effect by Cell ELISA in AsPC-1 (Test Example 2); assay type: cell-based, human; settings: Homo sapiens, ASPC1, AsPC-1 cells, cultured overnight with compound; 1 μM trametinib taken as 0%
Description: Test Example 2: Evaluation of ERK Phosphorylation Inhibitory Effect on Human G12D Mutant KRAS-Positive Pancreatic Cancer Line AsPC-1
The ERK phosphorylation inhibitory effect of test compounds was evaluated by measuring phosphorylation of threonine 202 (Thr202) and tyrosine 204 (Tyr204) of ERK located downstream of the KRAS signal by Cell ELISA.
AsPC-1 cells were seeded on 384-well plates at 36 μL/well to give 2.0×10^4 cells per well. As for the cell culture conditions, RPMI 1640 medium containing 10% fetal bovine serum was used in the presence of 5% CO2 at 37° C.
The next day, the test compounds (10 points having final concentrations in the range of 10 μM to 0.3 nM), trametinib (MEK inhibitor) of a final concentration of 1 μM as positive control and DMSO, which was the solvent for the test compounds, as negative control were diluted 100-fold with a fresh medium and were added at 4 μL per well. The cells were cultured overnight. After culturing, 30% glyoxal solution (40% glyoxal [from Nacalai Tesque] was diluted with PBS) was quickly added at 30 μL per well, and the plate was allowed to stand for 60 minutes at room temperature to thus immobilize the cells. Then, the plate was centrifuged to remove the supernatant (using a centrifugal dehydrator machine, the supernatant was removed by the same method hereinafter), and 0.1% Triton X-100-containing PBS was added at 20 μL per well. After allowing to stand for 10 minutes at room temperature, the supernatant was removed, and the same operation was further repeated. Next, 0.5% SDS-containing PBS was added at 20 μL per well, and after allowing to stand at room temperature for 30 minutes, the supernatant was removed. Subsequently, blocking solution (Intercept Blocking Buffer) was added at 20 μL per well, and the plate was allowed to stand for 1 hour at room temperature. The supernatant was removed, and an ERK (Thr202/Tyr204) phosphorylation antibody (Phospho-p44/42 MAPK (Erk 1/2) (Thr202/Tyr204) (D13.14.4E) XP Rabbit mAb; from Cell Signaling Technology) diluted 2,500-fold with blocking solution was added at 15 μL per well as a primary antibody. The plates were allowed to stand at 4° C. overnight.
The next day, the supernatant was removed. 0.05% Tween-20 (from Thermo Fisher Scientific)-containing PBS was added at 50 μL per well, and the supernatant was removed to thus wash each well. The washing was performed three times in total. After washing, Goat anti-Rabbit IgG H&L (IRDye 800CW) diluted 1,000-fold with blocking solution was added at 15 μL per well as a secondary antibody, and the plates were allowed to stand for 1 hour at room temperature. The supernatant was removed, and each well was washed three times with 0.05% Tween-20-containing PBS in the same manner as after the primary antibody reaction. After removing the supernatant, the plates were dried with air at room temperature for 3 hours or more, and the 800-nm fluorescent signals were measured with Aerius.
With the signaling value at the time of addition of DMSO taken as 100% and with the signaling value at the time of addition of 1 μM trametinib taken as 0%, the 50% inhibitory concentration values (IC50) were calculated by Sigmoid-Emax nonlinear regression analysis.

[2] = system: human G12D mutant KRAS-positive pancreatic cancer line AsPC-1; test: Non-anchorage-dependent cell growth inhibition, spheroid 3D cell culture (Test Example 3); assay type: cell-based; settings: Homo sapiens, ASPC1, 144 h, AsPC-1 spheroid 3D culture, 6 days, CellTiter Glo 2.0
Description: Test Example 3: Evaluation of Non-Anchorage-Dependent Cell Growth Inhibitory Effect on Human G12D Mutant KRAS-Positive Pancreatic Cancer Line AsPC-1
The non-anchorage-dependent cell growth inhibitory effect of test compounds was evaluated by spheroid 3D cell culture.
AsPC-1 cells were seeded on low-cell-adhesive round bottom 384-well plates (PrimeSurface: from Sumitomo Bakelite) at 36 μL/well to give 5×10^2 cells per well. As for the cell culture conditions, RPMI 1640 medium containing 10% fetal bovine serum was used in the presence of 5% CO2 at 37° C.
The next day, the test compounds (10 or 6 points having final concentrations in the range of 10 μM to 0.3 nM) and DMSO, which was the solvent for the test compounds, as a negative control were diluted 100-fold with a fresh medium and were added at 4 μL per well. After culturing in the presence of 5% CO2 at 37° C. for 6 days, CellTiter Glo 2.0 (from Promega) was added at 20 μL per well. After stirring with a plate mixer (from FINEPCR) at room temperature for 1 hour, the luminescent signals were measured with ARVO X3 (from PerkinElmer).
With the signaling value in treatment with DMSO taken as 100% and with the signaling value in the medium alone without cells taken as 0%, the 50% inhibitory concentration values (IC50) were calculated by Sigmoid-Emax nonlinear regression analysis.

T1 sequence (P01116 1-188 isoform P01116-2 G12D): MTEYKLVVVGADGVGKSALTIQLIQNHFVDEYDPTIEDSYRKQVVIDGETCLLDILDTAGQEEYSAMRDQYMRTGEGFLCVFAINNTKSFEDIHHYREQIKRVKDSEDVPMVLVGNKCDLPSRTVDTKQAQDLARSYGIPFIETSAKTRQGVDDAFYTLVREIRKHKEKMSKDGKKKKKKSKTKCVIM

Compound: Cc1ncsc1-c1ccc([C@H](CO)NC(=O)[C@@H]2C[C@@H](O)CN2C(=O)[C@H](C(C)C)n2cc(-c3ccc(COc4c(-c5c(C)c(F)cc6[nH]ncc56)c(C5CC5)cc5c(O[C@H]6CCNC6)nc(OC6CCOCC6)nc45)cc3)nn2)cc1 (atropisomer, axis not shown) [Example 1]
- DC50 (KRAS G12D protein): 0.013 µM
- IC50 [1]: 0.007 µM
- IC50 [2]: 0.009 µM

Compound: Cc1ncsc1-c1ccc([C@H](CO)NC(=O)[C@@H]2C[C@@H](O)CN2C(=O)[C@H](C(C)C)n2cc(-c3ccc(COc4c(-c5c(C)c(F)cc6[nH]ncc56)c(C5CC5)cc5c(N[C@H]6CCNC6)nc(OC6CCOCC6)nc45)cc3)nn2)cc1 (atropisomer, axis not shown) [Example 3]
- DC50 (KRAS G12D protein): 0.047 µM
- IC50 [1]: 0.016 µM
- IC50 [2]: 0.007 µM

Compound: CO[C@@H](C)COc1nc(O[C@H]2CCNC2)c2cc(C3CC3)c(-c3c(C)c(F)cc4[nH]ncc34)c(OCc3ccc(-c4cn([C@H](C(=O)N5C[C@H](O)C[C@H]5C(=O)N[C@@H](CO)c5ccc(-c6scnc6C)cc5)C(C)C)nn4)cc3)c2n1 (atropisomer, axis not shown) [Example 5]
- DC50 (KRAS G12D protein): 0.009 µM
- IC50 [1]: 0.012 µM
- IC50 [2]: 0.01 µM

Compound: CO[C@@H](C)COc1nc(N[C@H]2CCNC2)c2cc(C3CC3)c(-c3c(C)c(F)cc4[nH]ncc34)c(OCc3ccc(-c4cn([C@H](C(=O)N5C[C@H](O)C[C@H]5C(=O)N[C@@H](CO)c5ccc(-c6scnc6C)cc5)C(C)C)nn4)cc3)c2n1 (atropisomer, axis not shown) [Example 6]
- DC50 (KRAS G12D protein): 0.024 µM
- IC50 [1]: 0.005 µM
- IC50 [2]: 0.008 µM

Compound: Cc1ncsc1-c1ccc([C@H](CO)NC(=O)[C@@H]2C[C@@H](O)CN2C(=O)[C@H](C(C)C)n2cc(-c3ccc(COc4c(-c5c(C)c(F)cc6[nH]ncc56)c(C5CC5)cc5c(N[C@@H]6CNC[C@@H]6O)nc(OC6CCOCC6)nc45)cc3)nn2)cc1 (atropisomer, axis not shown) [Example 7]
- DC50 (KRAS G12D protein): 0.04 µM
- IC50 [1]: 0.009 µM
- IC50 [2]: 0.023 µM

Compound: Cc1ncsc1-c1ccc([C@H](CO)NC(=O)[C@@H]2C[C@@H](O)CN2C(=O)[C@H](C(C)C)n2cc(-c3ccc(COc4c(-c5c(C)c(F)cc6[nH]ncc56)c(C5CC5)cc5c(N(C)[C@H]6CCNC6)nc(OC6CCOCC6)nc45)cc3)nn2)cc1 (atropisomer, axis not shown) [Example 8]
- DC50 (KRAS G12D protein): 0.018 µM
- IC50 [1]: 0.02 µM
- IC50 [2]: 0.016 µM

Compound: CO[C@@H](C)COc1nc(N(C)[C@H]2CCNC2)c2cc(C3CC3)c(-c3c(C)c(F)cc4[nH]ncc34)c(OCc3ccc(-c4cn([C@H](C(=O)N5C[C@H](O)C[C@H]5C(=O)N[C@@H](CO)c5ccc(F)cc5)C(C)C)nn4)cc3)c2n1 (atropisomer, axis not shown) [Example 12]
- DC50 (KRAS G12D protein): 0.061 µM
- IC50 [1]: 0.042 µM
- IC50 [2]: 0.041 µM

Compound: CO[C@@H](C)COc1nc(N(C)[C@H]2CCNC2)c2cc(C3CC3)c(-c3c(C)c(F)cc4[nH]ncc34)c(OCc3ccc(-c4cn([C@H](C(=O)N5C[C@H](O)C[C@H]5C(=O)N[C@@H](CO)c5ccc(-c6ocnc6C)cc5)C(C)C)nn4)cc3)c2n1 (atropisomer, axis not shown) [Example 14]
- DC50 (KRAS G12D protein): 0.02 µM
- IC50 [1]: 0.004 µM
- IC50 [2]: 0.004 µM

Compound: CO[C@@H](C)COc1nc(N(C)[C@H]2CCNC2)c2cc(C3CC3)c(-c3c(C)c(F)cc4[nH]ncc34)c(OCc3ccc(-c4cn([C@H](C(=O)N5C[C@H](O)C[C@H]5C(=O)N[C@@H](CO)c5ccc(N6CCOC6=O)cc5)C(C)C)nn4)cc3)c2n1 (atropisomer, axis not shown) [Example 15]
- DC50 (KRAS G12D protein): 0.099 µM
- IC50 [1]: 0.007 µM
- IC50 [2]: 0.007 µM

Compound: Cc1ncsc1-c1ccc([C@H](CO)NC(=O)[C@@H]2C[C@@H](O)CN2C(=O)[C@H](C(C)C)n2cc(-c3ccc(COc4c(-c5c(C)c(F)cc6[nH]ncc56)c(C5CC5)nc5c(N6C[C@@H]7C[C@H]6CN7)nc(OC6CCOCC6)nc45)cc3)nn2)cc1 [Example 57, (4R)-1-[(2S)-2-(4-{4-[({6-cyclopropyl-4-[(1S,4S)-2,5-diazabicyclo[2.2.1]heptan-2-yl]-7-(6-fluoro-5-methyl-1H-indazol-4-yl)-2-[(oxan-4-yl)oxy]pyrido[3,2-d]pyrimidin-8-yl}oxy)methyl]phenyl}-1H-1,2,3-triazol-1-yl)-3-methylbutanoyl]-4-hydroxy-N-{(1R)-2-hydroxy-1-[4-(4-methyl-1,3-thiazol-5-yl)phenyl]ethyl}-L-prolinamide]
- IC50 [2]: 0.095 µM
